Columns and labels:
π value of R^4 group = type: physicochemical; parameters: key: π from partition coefficients of derivative (Px) vs parent (PH); settings: substituent R^4
Procedure: R^4 is a monovalent organic group with a π value of at least 2.1. As used herein, the π value is determined by the equation: […]
where Px is the partition coefficient of a derivative and PH is the partition coefficient of the parent compound. A detailed description of the determination of the π value is provided by A. Leo, C. Hansch and D. Elkins, Chem. Rev., 71, 525 (1971).

[1] = Taft steric parameter Es of sterically hindering group; type: physicochemical; parameters: key: Taft steric parameter Es, referenced to H = 0 (more negative = bulkier)
Text: Y is a monovalent organic group which sterically hinders leuco dye formation. The sterically hindering group is characterizedby a negative Es value greater than the absolute value of -1.5 and more preferably greater than the absolute value of -2.0. The Es value refers to the Taft steric parameter, referenced to H=O and defined as: […]
where k refers to the rate constant for the acid hydrolysis of esters of the type X--CH2 COOR and 1.24 is the hydrolysis rate of formate. A detailed description of this parameter is provided by S. H. Unger and C. Hansch, Prog. Phys. Org. Chem., 12, 91 (1976).

Structure (SMILES)	π Value for R^4 (π value of R^4 group)	Es Value for Sterically Hindering Group [1]
CCCCCCCCCCCCC(Oc1ccc(C(C)(C)CC(C)(C)C)cc1C(C)(C)CC(C)(C)C)C(=O)NC1=NN(c2c(Cl)cc(Cl)cc2Cl)C(=O)C1n1cccn1 (stereo not drawn) [Example 3]	6.5	-2.6
CCCCC(Oc1ccc(C(C)(C)CC)cc1C(C)(C)CC)C(=O)NC1=NN(c2c(Cl)cc(Cl)cc2Cl)C(=O)C1n1cccn1 (stereo not drawn) [Example 4]	2.1	-3.0
CCCCCCCCC(Oc1ccc(C(C)(C)CC)cc1C(C)(C)CC)C(=O)NC1=NN(c2c(Cl)cc(Cl)cc2Cl)C(=O)C1n1cccn1 (stereo not drawn) [Example 6]	4.3	-3.0
CCCCCCC(Oc1ccc(C(C)(C)CC)cc1C(C)(C)CC)C(=O)NC1=NN(c2c(Cl)cc(Cl)cc2Cl)C(=O)C1n1cccn1 (stereo not drawn) [Example 5]	3.2	-3.0
CCCCCCC(Oc1ccc(C(C)(C)CC(C)(C)C)cc1C(C)(C)CC(C)(C)C)C(=O)NC1=NN(c2c(Cl)cc(Cl)cc2Cl)C(=O)C1n1cccn1 (stereo not drawn) [Example 1]	3.2	-2.6
CCCCCCCCCCCCC(Oc1ccc(C(C)(C)CC)cc1C(C)(C)CC)C(=O)NC1=NN(c2c(Cl)cc(Cl)cc2Cl)C(=O)C1n1cccn1 (stereo not drawn) [Example 7]	6.5	-3.0
CCCCCCCCC(Oc1ccc(C(C)(C)CC(C)(C)C)cc1C(C)(C)CC(C)(C)C)C(=O)NC1=NN(c2c(Cl)cc(Cl)cc2Cl)C(=O)C1n1cccn1 (stereo not drawn) [Example 2]	4.3	-2.6

Second part, the compound after the results:

π Value for R^4 (π value of R^4 group)	Es Value for Sterically Hindering Group [1]	Structure (SMILES)
6.5	-2.6	CCCCCCCCCCCCC(Oc1ccc(C(C)(C)CC(C)(C)C)cc1)C(=O)NC1=NN(c2c(Cl)cc(Cl)cc2Cl)C(=O)C1n1cccn1 (stereo not drawn) [Example 17]
6.5	-2.8	CCCCCCCCCCCCC(Oc1cc(C(C)(C)C)cc(C(C)(C)C)c1)C(=O)NC1=NN(c2c(Cl)cc(Cl)cc2Cl)C(=O)C1n1cccn1 (stereo not drawn) [Example 11]
6.5	-2.6	CCCCCCCCCCCCC(Oc1ccc(C)cc1C(C)(C)CC(C)(C)C)C(=O)NC1=NN(c2c(Cl)cc(Cl)cc2Cl)C(=O)C1n1cccn1 (stereo not drawn) [Example 16]
6.5	-1.6	CCCCCCCCCCCCC(Oc1ccc(CCCCC)cc1CCCCC)C(=O)NC1=NN(c2c(Cl)cc(Cl)cc2Cl)C(=O)C1n1cccn1 (stereo not drawn) [Example 10]
	-3.0	CCC(C)(C)c1ccc(OCC(=O)Nc2ccc(Oc3ccc(C(C)(C)CC)cc3C(C)(C)CC)c(C(=O)NC3=NN(c4c(Cl)cc(Cl)cc4Cl)C(=O)C3n3cccn3)c2)c(C(C)(C)CC)c1 (stereo not drawn) [Example 15]
8.6	-3.0	CCCCCCCCCCCCCCCCC(Oc1ccc(C(C)(C)CC)cc1C(C)(C)CC)C(=O)NC1=NN(c2c(Cl)cc(Cl)cc2Cl)C(=O)C1n1cccn1 (stereo not drawn) [Example 8]
	-3.0	CCCCCCCCCCC(Oc1ccc(S(=O)(=O)c2ccc(OCc3ccccc3)cc2)cc1)C(=O)Nc1ccc(Oc2ccc(C(C)(C)CC)cc2C(C)(C)CC)c(C(=O)NC2=NN(c3c(Cl)cc(Cl)cc3Cl)C(=O)C2n2cccn2)c1 (stereo not drawn) [Example 14]
	-3.0	CCC(C)(C)c1ccc(Oc2ccc([N+](=O)[O-])cc2C(=O)NC2=NN(c3c(Cl)cc(Cl)cc3Cl)C(=O)C2n2cccn2)c(C(C)(C)CC)c1 (stereo not drawn) [Example 12]
4.3	-2.6	CCCCCCC(Oc1cc2c(cc1C(C)(C)CC(C)(C)C)OC(C)(C)CC2(C)C)C(=O)NC1=NN(c2c(Cl)cc(Cl)cc2Cl)C(=O)C1n1cccn1 (stereo not drawn) [Example 9]
	-3.0	CCCCCCCCCCCC(=O)Nc1ccc(Oc2ccc(C(C)(C)CC)cc2C(C)(C)CC)c(C(=O)NC2=NN(c3c(Cl)cc(Cl)cc3Cl)C(=O)C2n2cccn2)c1 (stereo not drawn) [Example 13]

Source: patent US5610003A, “Two-equivalent magenta photographic couplers with activity-modifying ballasting groups” (Eastman Kodak Company, priority 1995, dated 1997)
